Patent US9227970B2, “Triazolopyridine compounds” (Hoffmann-La Roche Inc., priority 2011, dated 2016)

Columns and labels:
[1] = tested on: Salmonella; assay: Ames test (downscaled preincubation version); assay type: cell-based; details: downscaled standard preincubation Ames test
Method: Ames Test was performed as a downscaled version of the standard preincubation Ames test and adapted from the method described by Kado et al. with some modifications e.g. Maron. D. M. and B. N. Ames (1983). Revised methods for the Salmonella mutagenicity test. Mutation Research, 113, 173-215. N. Y. Kado, D. Langley and E. Eisenstadt A simple modification of the Salmonella liquid-incubation assay. Increased sensitivity for detecting mutagens in human urine, Mutat Res 121 (1983) 25-32.

[2] = biological target: human PDE10A (Homo sapiens (Human), UniProt Q9Y233); assay: human PDE10A full length Scintillation Proximity Assay (SPA); assay type: biochemical; details: 50 nM cGMP + 50 nM [3H]-cGMP, 20 minutes at room temperature, read-out: PDE10A inhibition IC50
human PDE10A, sequence (Q9Y233 other isoform, or with tags, fused parts or gaps): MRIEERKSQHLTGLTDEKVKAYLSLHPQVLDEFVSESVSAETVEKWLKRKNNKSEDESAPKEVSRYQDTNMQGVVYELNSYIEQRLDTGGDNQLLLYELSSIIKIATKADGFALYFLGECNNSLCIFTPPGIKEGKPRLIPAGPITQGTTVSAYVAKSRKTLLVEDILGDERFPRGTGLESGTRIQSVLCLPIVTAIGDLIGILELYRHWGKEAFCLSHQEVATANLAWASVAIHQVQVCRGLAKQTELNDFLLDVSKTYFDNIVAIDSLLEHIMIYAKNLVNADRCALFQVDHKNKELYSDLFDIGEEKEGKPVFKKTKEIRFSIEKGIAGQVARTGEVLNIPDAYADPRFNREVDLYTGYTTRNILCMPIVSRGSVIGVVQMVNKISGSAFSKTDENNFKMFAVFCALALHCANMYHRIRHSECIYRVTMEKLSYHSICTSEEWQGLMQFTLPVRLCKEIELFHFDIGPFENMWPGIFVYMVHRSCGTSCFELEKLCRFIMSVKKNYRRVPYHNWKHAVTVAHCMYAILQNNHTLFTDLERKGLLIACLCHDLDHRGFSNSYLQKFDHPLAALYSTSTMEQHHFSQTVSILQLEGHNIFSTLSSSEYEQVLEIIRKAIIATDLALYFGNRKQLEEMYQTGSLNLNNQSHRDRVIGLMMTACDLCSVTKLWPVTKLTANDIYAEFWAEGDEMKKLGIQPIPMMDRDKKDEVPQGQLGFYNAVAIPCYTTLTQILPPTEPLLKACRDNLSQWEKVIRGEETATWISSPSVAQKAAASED
Method: The following test was carried out in order to determine the activity of the compounds of the present invention. […] The human PDE10A full length assay was performed in 96-well micro titer plates. […] A range of concentrations of the potential inhibitor was used to generate data for calculating the concentration of inhibitor resulting in 50% of the effect (e.g. […] Non-specific activity was tested without the enzyme. The reaction was initiated by the addition of the substrate solution (cGMP and [^3H]-cGMP) and allowed to progress for 20 minutes at room temperature. The reaction was terminated by adding 25 μl of YSi-SPA scintillation beads (GE Healthcare, cat. # RPNQ0150) in 18 mM zinc sulphate solution (stop reagent). […] Afterwards, radioactive counts were measured on a Perkin Elmer Top-Count Scintillation plate reader.

Row | Structure (SMILES) | Ames test [1] | IC50 [2] [nM] | melting point [°C]
1 | Cn1ncc(C(=O)N2CCC2)c1C(=O)Nc1ccc2nc(-c3ccccc3)nn2c1 [Example 3, 4-(Azetidine-1-carbonyl)-2-methyl-2H-pyrazole-3-carboxylic acid (2-phenyl-[1,2,4]triazolo[1,5-a]pyridin-6-yl)-amide] | negative | 0.6 | 235 to 236
2 | Cn1ncc(C(=O)N2CCOCC2)c1C(=O)Nc1ccc2nc(-c3ccccc3)nn2c1 [Example 5, 1-Methyl-4-(morpholine-4-carbonyl)-N-(2-phenyl-[1,2,4]triazolo[1,5-a]pyridin-6-yl)-1H-pyrazole-5-carboxamide] | negative | 2.5 | 183 to 185
3 | CN(C(=O)c1cnn(C)c1C(=O)Nc1ccc2nc(-c3cccnc3)nn2c1)C1CC1 [Example 11, N4-Cyclopropyl-N4,1-dimethyl-N5-(2-(pyridin-3-yl)-[1,2,4]triazolo[1,5-a]pyridin-6-yl)-1H-pyrazole-4,5-dicarboxamide] | negative | 6.7 | 237
4 | Cn1ncc(C(=O)N2CCCC2)c1C(=O)Nc1ccc2nc(-c3cccnc3)nn2c1 [Example 12, 1-Methyl-N-(2-(pyridin-3-yl)-[1,2,4]triazolo[1,5-a]pyridin-6-yl)-4-(pyrrolidine-1-carbonyl)-1H-pyrazole-5-carboxamide] |  | 17.9 | 251
5 | Cn1ncc(C(=O)N2CCCC2)c1C(=O)Nc1ccc2nc(N3CCOCC3)nn2c1 [Example 13, 2-Methyl-4-(pyrrolidine-1-carbonyl)-2H-pyrazole-3-carboxylic acid (2-morpholin-4-yl-[1,2,4]triazolo[1,5-a]pyridin-6-yl)-amide] |  | 15.4 | 185
6 | Cn1ncc(C(=O)N2CCC2)c1C(=O)Nc1ccc2nc(N3CCOCC3)nn2c1 [Example 15] | negative |  | 
7 | CN(C(=O)c1cnn(C)c1C(=O)Nc1ccc2nc(N3CCOCC3)nn2c1)C1CC1 [Example 18, 2-Methyl-2H-pyrazole-3,4-dicarboxylic acid 4-(cyclopropyl-methyl-amide) 3-[(2-morpholin-4-yl-[1,2,4]triazolo[1,5-a]pyridin-6-yl)-amide]] |  | 7.2 | 172
8 | CN(C)c1nc2ccc(NC(=O)c3c(C(=O)N4CCOCC4)cnn3C)cn2n1 [Example 19, 2-Methyl-4-(morpholine-4-carbonyl)-2H-pyrazole-3-carboxylic acid (2-dimethylamino-[1,2,4]triazolo[1,5-a]pyridin-6-yl)-amide] | negative | 36 | 
9 | CN(C)c1nc2ccc(NC(=O)c3c(C(=O)N4CCC4)cnn3C)cn2n1 [Example 20, 4-(Azetidine-1-carbonyl)-2-methyl-2H-pyrazole-3-carboxylic acid (2-dimethylamino-[1,2,4]triazolo[1,5-a]pyridin-6-yl)-amide] | negative | 8.2 | 
